# Laboratory results: US20100028358A1, “Compositions and Methods for Controlling Tissue Factor Signaling Specificity” (priority 2005, published 2010)
# Where two headings read alike, the source gives them in different places. Where a SMILES comes first, the peptide text is derived from it. Bridges are numbered along the chain shown (N, C = ends). [ ]: non-standard residue; d: D form. The star is where a group is joined. Ileψ(thiazoline)Cys = CC[C@H](C)[C@H](N)C1=N[C@H](C(=O)*)CS1; dOrn = NCCC[C@@H](N)C(=O)O
# Assays:
# [1] = target: tissue factor (TF) coagulant activity (Homo sapiens, UniProt P13726); test: TF coagulant activity (Xa generation) on HaCaT cells; type: cell-based
# TF-PAR2 complex = TF-PAR2 complex (Homo sapiens, UniProt P13726); test: TF-PAR2 complex co-immunoprecipitation from HaCaT cells; type: cell-based; conditions: Hg2+ pretreatment, high Ca2+ cells
# Description: Additional studies as illustrated in FIG. 7 indicate that TF-VIIa signaling requires TF.PAR2 complex formation. […] Loading controls were not feasible due to background, because no PAR suitable antibody from a different species was available for Western-blotting. […] MPB-labeled cells were immunoprecipitated with MAb-9C3 or MAb-10H10 and probed for PDI, TF or thiol-biotinylation with MPB.
# PDI association with TF = PDI association with TF (Homo sapiens, UniProt P07237); test: Cell surface MPB/NHS labelling and TF immunoprecipitation (PDI association with TF)
# Description: Cell surface labelling, immunoprecipitation, confocal imaging Cells were washed and labelled in HEPES buffer with 1.5 mM calcium chloride with either 100 μM MPB or 0.5 mg/ml NHS biotin at 4° C. for 20 min. […] Blots were digitized for densitometry using NIH Image Scion. Cells were stained on ice with directly conjugated antibodies for confocal microscopy using a Nikon TE2000-U microscope. Optical sections of each fluorophor were merged using Adobe Photoshop.
# TF-VIIa signaling = TF-VIIa signaling in HaCaT cells (MAP kinase phosphorylation)
# tissue factor (TF) coagulant activity, sequence (P13726 33-295): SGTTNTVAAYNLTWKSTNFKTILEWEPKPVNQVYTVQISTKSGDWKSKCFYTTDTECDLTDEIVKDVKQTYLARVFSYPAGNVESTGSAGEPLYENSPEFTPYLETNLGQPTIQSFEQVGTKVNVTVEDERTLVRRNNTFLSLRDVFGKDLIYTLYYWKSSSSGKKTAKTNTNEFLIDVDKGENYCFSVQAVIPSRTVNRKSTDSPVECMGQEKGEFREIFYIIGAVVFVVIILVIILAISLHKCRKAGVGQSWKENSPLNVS
# PDI association with TF, sequence (P07237 18-508): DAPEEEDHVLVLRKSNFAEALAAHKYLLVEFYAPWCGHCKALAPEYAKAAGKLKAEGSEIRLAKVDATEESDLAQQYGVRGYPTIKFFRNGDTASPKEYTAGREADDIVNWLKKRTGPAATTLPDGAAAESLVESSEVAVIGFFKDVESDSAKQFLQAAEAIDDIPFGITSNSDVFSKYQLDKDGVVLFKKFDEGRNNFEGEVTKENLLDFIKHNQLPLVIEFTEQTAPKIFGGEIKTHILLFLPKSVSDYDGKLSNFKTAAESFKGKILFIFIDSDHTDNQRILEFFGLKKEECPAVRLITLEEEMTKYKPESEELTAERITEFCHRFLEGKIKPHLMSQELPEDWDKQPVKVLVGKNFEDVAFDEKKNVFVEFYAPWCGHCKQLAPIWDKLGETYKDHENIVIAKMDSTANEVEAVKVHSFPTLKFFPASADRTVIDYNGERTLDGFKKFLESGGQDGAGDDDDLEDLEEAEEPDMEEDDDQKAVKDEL
# TF-PAR2 complex, sequence (P13726 33-295, one chain of several): as the sequence (P13726 33-295) above
structure (smiles),measurement,setting,value
"N[C@@H](CCC(=O)N[C@@H](CS)C(=O)NCC(=O)O)C(=O)O [GSH, reduced glutathione]",TF coagulant activity after Hg2+-induced activation and washout,[1],no effect on TF activity
[Cl][Hg][Cl] [HgCl2],Concentration required to enhance TF coagulant activity,[1],50 to 100 µM
same,HgCl2 activation of coagulation in the presence of bacitracin,[1],did not increase coagulation in the presence of bacitracin
same,TF coagulant activity in high Ca2+ cells,[1],increased TF coagulant activity substantially
same,TF coagulant activity in low Ca2+ cells,[1],little effect
same,PAR2 complex formation with TF in MAb-5G9 immunoprecipitates,TF-PAR2 complex,abolished PAR2 complex formation with TF
same,Association (co-precipitation) of PDI with TF,PDI association with TF,specifically disrupted the association of PDI with TF
N[C@@H](CCC(=O)N[C@@H](CSN=O)C(=O)NCC(=O)O)C(=O)O [S-nitrosoglutathione],TF coagulant activity after Hg2+-induced activation and washout,[1],sufficient to suppress TF coagulant activity
CC[C@H](C)[C@H](N)C1=N[C@H](C(=O)N[C@@H](CC(C)C)C(=O)N[C@H](CCC(=O)O)C(=O)N[C@H](C(=O)N[C@H]2CCCCNC(=O)[C@H](CC(N)=O)NC(=O)[C@@H](CC(=O)O)NC(=O)[C@H](Cc3cnc[nH]3)NC(=O)[C@@H](Cc3ccccc3)NC(=O)[C@H]([C@@H](C)CC)NC(=O)[C@@H](CCCN)NC2=O)[C@@H](C)CC)CS1 [bacitracin] ({Ileψ(thiazoline)Cys}-L[dE]IK[dOrn]I[dF]H[dD]N; lactam 4-C),HgCl2 activation of coagulation in the presence of bacitracin,[1]; HgCl2 with bacitracin,reversible inhibitor of HgCl2 activation
same,TF coagulant activity in high Ca2+ cells,"[1]; high Ca2+ HaCaT cells, 100 μM HgCl2 for 2 minutes, bacitracin 3 mM",slightly increased coagulant function of TF
same,TF-VIIa signaling,"TF-VIIa signaling; HaCaT cells, 10 nM VIIa",inhibited TF-VIIa signaling
same,Association (co-precipitation) of PDI with TF,PDI association with TF; high Ca2+ HaCaT cells,prevented the co-precipitation of PDI with TF
C[C@@H]1C[C@@H]([C@H](O)CC2CC(=O)NC(=O)C2)C(=O)[C@@H](C)C1 [cycloheximide],TF-VIIa signaling,TF-VIIa signaling,prevented TF-VIIa signaling
